# What was measured:
# [1] = biological target: Kdr (Homo sapiens, UniProt P35968); test: Kinase activity assay, Kdr
# [2] = biological target: Fms (Homo sapiens, UniProt P07333); test: Kinase activity assay, Fms
# [3] = biological target: PI3Kα (Homo sapiens, UniProt P42336); test: Kinase activity assay, PI3Kα
# [4] = biological target: Src (Homo sapiens, UniProt P12931); test: Kinase activity assay, Src
# [5] = biological target: T1, TEC (Homo sapiens, UniProt P42680); test: Kinase activity assay, TEC
# T1 sequence (P42680 1-631): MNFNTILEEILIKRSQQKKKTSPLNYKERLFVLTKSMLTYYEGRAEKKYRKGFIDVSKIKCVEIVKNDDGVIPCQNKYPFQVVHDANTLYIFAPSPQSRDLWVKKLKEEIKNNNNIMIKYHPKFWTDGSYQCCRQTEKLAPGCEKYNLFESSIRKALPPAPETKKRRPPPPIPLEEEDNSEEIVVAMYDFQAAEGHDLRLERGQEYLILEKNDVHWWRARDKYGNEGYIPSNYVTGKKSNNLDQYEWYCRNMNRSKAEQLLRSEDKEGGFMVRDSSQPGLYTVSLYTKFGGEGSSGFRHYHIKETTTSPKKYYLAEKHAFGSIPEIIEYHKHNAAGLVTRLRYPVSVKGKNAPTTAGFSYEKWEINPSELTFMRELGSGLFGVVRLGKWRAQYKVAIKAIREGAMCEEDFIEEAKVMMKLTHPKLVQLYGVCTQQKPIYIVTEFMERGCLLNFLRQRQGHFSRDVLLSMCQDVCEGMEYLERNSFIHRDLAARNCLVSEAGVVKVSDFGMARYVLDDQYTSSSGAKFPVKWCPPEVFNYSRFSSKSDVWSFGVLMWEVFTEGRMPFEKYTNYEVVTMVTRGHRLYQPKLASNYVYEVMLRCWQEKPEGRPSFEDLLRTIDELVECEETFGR
# [6] = biological target: Btk (Homo sapiens, UniProt Q06187); test: Kinase activity assay, Btk
# [7] = biological target: MAP4K4 (Homo sapiens, UniProt O95819); test: Kinase activity assay, MAP4K4
# [8] = biological target: Kit (Homo sapiens, UniProt P10721); test: Kinase activity assay, Kit
# [9] = biological target: B-Raf (Homo sapiens, UniProt P15056); test: Kinase activity assay, B-Raf; type: biochemical; settings: read-out: activity toward kinase B-Raf, IC50
# [10] = biological target: C-Raf (Homo sapiens, UniProt P04049); test: Kinase activity assay, C-Raf
# [11] = biological target: B-Raf V600E (Homo sapiens, UniProt P15056, V600E); test: Kinase activity assay, B-Raf V600E; type: biochemical; settings: read-out: activity toward kinase B-Raf V600E, IC50
# Chain of Src (P12931 whole entry): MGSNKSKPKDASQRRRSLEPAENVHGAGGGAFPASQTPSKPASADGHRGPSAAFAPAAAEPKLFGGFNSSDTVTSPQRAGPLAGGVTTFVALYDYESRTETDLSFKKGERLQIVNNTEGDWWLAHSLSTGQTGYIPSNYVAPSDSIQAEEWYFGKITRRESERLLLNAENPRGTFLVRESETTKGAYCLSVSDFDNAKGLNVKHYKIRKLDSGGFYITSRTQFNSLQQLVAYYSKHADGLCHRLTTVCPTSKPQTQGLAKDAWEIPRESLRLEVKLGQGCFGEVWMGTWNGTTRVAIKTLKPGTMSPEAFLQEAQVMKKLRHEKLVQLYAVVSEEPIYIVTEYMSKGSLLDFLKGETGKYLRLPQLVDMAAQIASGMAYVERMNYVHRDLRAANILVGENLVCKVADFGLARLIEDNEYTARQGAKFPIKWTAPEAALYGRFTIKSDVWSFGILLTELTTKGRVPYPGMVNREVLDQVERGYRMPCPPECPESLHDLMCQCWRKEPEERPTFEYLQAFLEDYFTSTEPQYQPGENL
# Chain of Btk (Q06187 whole entry): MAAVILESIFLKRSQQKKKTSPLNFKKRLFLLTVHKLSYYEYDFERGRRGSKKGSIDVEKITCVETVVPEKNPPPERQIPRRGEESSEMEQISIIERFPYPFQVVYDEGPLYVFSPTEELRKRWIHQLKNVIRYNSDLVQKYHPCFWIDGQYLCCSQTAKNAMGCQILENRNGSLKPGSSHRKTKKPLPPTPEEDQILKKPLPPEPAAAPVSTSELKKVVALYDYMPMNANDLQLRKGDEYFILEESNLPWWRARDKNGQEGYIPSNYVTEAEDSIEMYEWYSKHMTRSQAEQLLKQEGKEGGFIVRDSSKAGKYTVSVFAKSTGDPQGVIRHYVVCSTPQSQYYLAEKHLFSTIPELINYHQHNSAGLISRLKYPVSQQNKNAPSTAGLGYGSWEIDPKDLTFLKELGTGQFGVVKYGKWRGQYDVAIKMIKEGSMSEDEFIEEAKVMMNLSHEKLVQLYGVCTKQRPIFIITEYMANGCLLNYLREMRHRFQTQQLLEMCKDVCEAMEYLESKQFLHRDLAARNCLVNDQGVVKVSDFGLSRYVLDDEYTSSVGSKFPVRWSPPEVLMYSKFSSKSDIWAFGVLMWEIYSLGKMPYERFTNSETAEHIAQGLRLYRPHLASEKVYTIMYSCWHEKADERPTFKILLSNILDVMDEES
# Chain of Kdr (P35968 20-1356): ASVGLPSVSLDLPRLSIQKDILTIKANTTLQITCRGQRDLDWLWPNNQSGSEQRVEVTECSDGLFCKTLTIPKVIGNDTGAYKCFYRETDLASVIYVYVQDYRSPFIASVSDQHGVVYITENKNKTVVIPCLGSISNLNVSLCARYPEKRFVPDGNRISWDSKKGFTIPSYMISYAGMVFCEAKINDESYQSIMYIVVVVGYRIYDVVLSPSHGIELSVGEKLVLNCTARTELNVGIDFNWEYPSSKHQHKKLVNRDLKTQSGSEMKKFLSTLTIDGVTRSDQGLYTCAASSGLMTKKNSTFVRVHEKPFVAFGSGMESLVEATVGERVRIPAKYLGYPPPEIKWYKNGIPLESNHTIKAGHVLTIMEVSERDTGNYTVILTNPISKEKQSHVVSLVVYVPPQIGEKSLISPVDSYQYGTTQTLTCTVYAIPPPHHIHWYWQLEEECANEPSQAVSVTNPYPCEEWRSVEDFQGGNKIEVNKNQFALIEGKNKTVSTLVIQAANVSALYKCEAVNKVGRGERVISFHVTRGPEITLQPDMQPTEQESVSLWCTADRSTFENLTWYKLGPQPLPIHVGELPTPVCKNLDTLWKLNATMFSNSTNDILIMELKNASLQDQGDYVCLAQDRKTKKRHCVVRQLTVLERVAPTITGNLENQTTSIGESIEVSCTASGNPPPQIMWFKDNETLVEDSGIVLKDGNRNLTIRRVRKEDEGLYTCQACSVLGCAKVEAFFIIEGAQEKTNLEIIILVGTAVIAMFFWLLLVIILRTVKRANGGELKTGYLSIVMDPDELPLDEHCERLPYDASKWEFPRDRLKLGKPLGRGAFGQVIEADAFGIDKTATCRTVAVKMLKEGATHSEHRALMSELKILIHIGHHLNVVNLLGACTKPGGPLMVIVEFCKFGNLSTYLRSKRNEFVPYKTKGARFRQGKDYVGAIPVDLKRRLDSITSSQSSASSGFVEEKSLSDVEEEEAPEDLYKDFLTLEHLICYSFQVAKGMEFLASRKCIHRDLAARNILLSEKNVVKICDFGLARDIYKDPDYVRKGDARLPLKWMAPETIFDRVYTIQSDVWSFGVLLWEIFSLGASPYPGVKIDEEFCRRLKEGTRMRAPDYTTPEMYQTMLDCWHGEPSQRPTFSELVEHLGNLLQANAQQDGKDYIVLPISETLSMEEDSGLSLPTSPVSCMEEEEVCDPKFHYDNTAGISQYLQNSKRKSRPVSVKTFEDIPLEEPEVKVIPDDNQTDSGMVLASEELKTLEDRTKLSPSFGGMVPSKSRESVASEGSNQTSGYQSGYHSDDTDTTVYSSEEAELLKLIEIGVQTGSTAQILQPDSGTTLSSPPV
# Chain of PI3Kα (P42336 whole entry): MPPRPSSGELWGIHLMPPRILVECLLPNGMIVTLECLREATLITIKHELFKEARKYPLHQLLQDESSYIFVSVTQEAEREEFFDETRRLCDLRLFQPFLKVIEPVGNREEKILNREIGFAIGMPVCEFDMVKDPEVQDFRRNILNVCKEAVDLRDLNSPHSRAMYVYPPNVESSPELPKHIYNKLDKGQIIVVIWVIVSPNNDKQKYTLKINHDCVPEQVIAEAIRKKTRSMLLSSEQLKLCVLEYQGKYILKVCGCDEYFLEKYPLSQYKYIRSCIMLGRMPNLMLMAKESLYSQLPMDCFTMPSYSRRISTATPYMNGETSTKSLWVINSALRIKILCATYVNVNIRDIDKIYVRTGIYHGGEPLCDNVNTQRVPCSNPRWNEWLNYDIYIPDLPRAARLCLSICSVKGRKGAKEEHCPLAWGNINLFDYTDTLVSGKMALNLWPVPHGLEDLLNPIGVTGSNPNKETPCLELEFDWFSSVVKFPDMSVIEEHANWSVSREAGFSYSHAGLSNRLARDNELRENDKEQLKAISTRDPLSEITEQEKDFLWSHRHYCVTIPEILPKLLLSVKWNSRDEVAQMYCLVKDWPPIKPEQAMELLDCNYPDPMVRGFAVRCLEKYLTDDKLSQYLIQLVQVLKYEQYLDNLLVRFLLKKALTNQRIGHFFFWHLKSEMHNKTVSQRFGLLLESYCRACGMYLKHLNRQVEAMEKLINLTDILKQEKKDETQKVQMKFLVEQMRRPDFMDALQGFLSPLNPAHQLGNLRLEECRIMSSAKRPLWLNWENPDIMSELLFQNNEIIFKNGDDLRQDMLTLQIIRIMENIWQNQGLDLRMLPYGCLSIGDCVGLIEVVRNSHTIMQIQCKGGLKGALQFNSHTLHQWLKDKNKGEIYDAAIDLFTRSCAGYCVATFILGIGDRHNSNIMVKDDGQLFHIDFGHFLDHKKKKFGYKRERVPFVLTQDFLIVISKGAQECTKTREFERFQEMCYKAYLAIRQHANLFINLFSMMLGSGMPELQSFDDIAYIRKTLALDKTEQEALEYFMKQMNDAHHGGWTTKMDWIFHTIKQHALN
# Chain of PI3Kα (P27986 whole entry partner): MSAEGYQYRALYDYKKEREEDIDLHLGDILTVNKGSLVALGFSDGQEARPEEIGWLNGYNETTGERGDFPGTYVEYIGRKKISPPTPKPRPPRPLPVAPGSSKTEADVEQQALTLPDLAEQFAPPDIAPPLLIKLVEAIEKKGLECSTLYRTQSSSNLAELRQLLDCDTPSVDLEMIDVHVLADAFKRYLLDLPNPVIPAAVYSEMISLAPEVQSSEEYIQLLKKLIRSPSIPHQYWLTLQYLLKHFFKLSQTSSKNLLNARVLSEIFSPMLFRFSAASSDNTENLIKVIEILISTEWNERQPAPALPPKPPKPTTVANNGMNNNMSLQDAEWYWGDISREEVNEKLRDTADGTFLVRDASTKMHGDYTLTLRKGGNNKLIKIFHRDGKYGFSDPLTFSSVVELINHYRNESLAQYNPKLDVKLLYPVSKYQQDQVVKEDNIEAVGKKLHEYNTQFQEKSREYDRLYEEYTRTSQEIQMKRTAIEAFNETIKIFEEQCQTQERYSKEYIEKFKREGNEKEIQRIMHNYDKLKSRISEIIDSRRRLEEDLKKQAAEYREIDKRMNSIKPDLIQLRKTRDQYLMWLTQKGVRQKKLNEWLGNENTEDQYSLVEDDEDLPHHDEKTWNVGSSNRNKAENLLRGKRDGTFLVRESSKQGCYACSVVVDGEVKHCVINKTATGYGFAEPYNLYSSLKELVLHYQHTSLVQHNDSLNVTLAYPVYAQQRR
# Chain of B-Raf (P15056 whole entry): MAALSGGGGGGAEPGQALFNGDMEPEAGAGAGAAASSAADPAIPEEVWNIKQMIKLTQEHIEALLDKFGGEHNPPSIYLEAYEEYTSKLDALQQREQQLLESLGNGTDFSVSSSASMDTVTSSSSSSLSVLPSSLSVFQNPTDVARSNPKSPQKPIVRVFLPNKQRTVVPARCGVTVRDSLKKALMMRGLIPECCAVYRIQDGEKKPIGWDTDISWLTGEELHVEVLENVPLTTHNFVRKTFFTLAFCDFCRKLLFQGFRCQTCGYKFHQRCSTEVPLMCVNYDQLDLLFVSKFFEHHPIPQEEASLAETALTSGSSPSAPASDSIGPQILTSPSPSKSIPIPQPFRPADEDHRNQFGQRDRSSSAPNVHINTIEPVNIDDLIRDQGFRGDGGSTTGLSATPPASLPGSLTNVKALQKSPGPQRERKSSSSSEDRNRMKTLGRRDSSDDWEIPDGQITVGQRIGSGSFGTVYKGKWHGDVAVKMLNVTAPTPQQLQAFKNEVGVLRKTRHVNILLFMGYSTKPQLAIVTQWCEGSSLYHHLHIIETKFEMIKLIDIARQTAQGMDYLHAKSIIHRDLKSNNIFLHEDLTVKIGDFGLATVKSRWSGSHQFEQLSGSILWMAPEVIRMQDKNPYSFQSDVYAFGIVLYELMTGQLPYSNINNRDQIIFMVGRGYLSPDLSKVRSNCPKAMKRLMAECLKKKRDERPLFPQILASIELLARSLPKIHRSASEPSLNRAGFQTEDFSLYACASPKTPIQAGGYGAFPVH
Compound,IC50 [1],IC50 [2],IC50 [3],IC50 [4],IC50 [5],IC50 [6],IC50 [7],IC50 [8],IC50 [9],IC50 [10],IC50 [11]
"CS(=O)(=O)Nc1cccc(-c2cnc3[nH]cc(C(=O)c4cc(NS(=O)(=O)c5cccnc5)ccc4F)c3c2)c1 [P-2139, Pyridine-3-sulfonic acid {4-fluoro-3-[5-(3-methanesulfonylamino-phenyl)-1H-pyrrolo[2,3-b]pyridine-3-carbonyl]-phenyl}-amide]",≤ 10 µM,≤ 10 µM,≤ 10 µM,≤ 10 µM,≤ 10 µM,≤ 10 µM,≤ 10 µM,≤ 10 µM,≤ 10 µM,≤ 10 µM,≤ 10 µM
"COc1ncc(-c2cnc3[nH]cc(C(=O)c4c(F)ccc(NS(=O)(=O)CC(C)C)c4F)c3c2)cn1 [P-2322, 2-Methyl-propane-1-sulfonic acid {2,4-difluoro-3-[5-(2-methoxy-pyrimidin-5-yl)-1H-pyrrolo[2,3-b]pyridine-3-carbonyl]-phenyl}-amide]",≤ 10 µM,≤ 10 µM,≤ 10 µM,≤ 10 µM,≤ 10 µM,≤ 10 µM,–,≤ 10 µM,≤ 10 µM,≤ 10 µM,≤ 10 µM
"COc1ncc(-c2cnc3[nH]cc(C(=O)c4c(F)ccc(NS(=O)(=O)c5ccc(F)cc5F)c4F)c3c2)cn1 [P-2044, N-{2,4-Difluoro-3-[5-(2-methoxy-pyrimidin-5-yl)-1H-pyrrolo[2,3-b]pyridine-3-carbonyl]-phenyl}-2,4-difluoro-benzenesulfonamide]",≤ 10 µM,≤ 10 µM,≤ 10 µM,≤ 10 µM,≤ 10 µM,≤ 10 µM,–,≤ 10 µM,≤ 10 µM,≤ 10 µM,≤ 10 µM

# Further lines, results first:
IC50 [1],IC50 [2],IC50 [3],IC50 [4],IC50 [5],IC50 [6],IC50 [7],IC50 [8],IC50 [9],IC50 [10],IC50 [11],Compound
≤ 10 µM,≤ 10 µM,≤ 10 µM,≤ 10 µM,≤ 10 µM,≤ 10 µM,≤ 10 µM,≤ 10 µM,≤ 10 µM,–,–,"CS(=O)(=O)Nc1cccc(-c2cnc3[nH]cc(C(=O)c4cccc(NS(=O)(=O)c5cccnc5)c4)c3c2)c1 [P-2145, Pyridine-3-sulfonic acid {3-[5-(3-methanesulfonylamino-phenyl)-1H-pyrrolo[2,3-b]pyridine-3-carbonyl]-phenyl}-amide]"
≤ 10 µM,≤ 10 µM,≤ 10 µM,≤ 10 µM,≤ 10 µM,≤ 10 µM,–,≤ 10 µM,≤ 10 µM,≤ 10 µM,≤ 10 µM,"COc1ncc(-c2cnc3[nH]cc(C(=O)c4c(F)ccc(NS(=O)(=O)C5CCCCC5)c4F)c3c2)cn1 [P-2371, Cyclohexanesulfonic acid {2,4-difluoro-3-[5-(2-methoxy-pyrimidin-5-yl)-1H-pyrrolo[2,3-b]pyridine-3-carbonyl]-phenyl}-amide]"
≤ 10 µM,≤ 10 µM,≤ 10 µM,≤ 10 µM,≤ 10 µM,≤ 10 µM,–,≤ 10 µM,≤ 10 µM,≤ 10 µM,≤ 10 µM,"COc1ncc(-c2cnc3[nH]cc(C(=O)c4c(F)ccc(NS(=O)(=O)c5cc(F)ccc5F)c4F)c3c2)cn1 [P-2042, N-{2,4-Difluoro-3-[5-(2-methoxy-pyrimidin-5-yl)-1H-pyrrolo[2,3-b]pyridine-3-carbonyl]-phenyl}-2,5-difluoro-benzenesulfonamide]"

# Reference: US20120122860A1, “SOLID FORMS OF SULFONAMIDES AND AMINO ACIDS” (Plexxikon, Inc., priority 2009, published 2012)
